These results are taken from patent publication US8901171B2, “Compounds for suppressing a peripheral nerve disorder induced by an anti-cancer agent” (Takeda Pharmaceutical Company Limited, priority 2010, dated 2014).

Holding throughout (format): in vivo
Data set [1] concerns Mice (C57BL/6N, male, 8-week-old), peripheral nerve disorders induced by various anti-cancer agents. Kind of data set: Experimental Example 2: pain threshold of mice given various anti-cancer agents, balance type pressing device (Ugo Basile). Particulars: 1 week after. Here is the method: Mice (C57BL/6N, male, 8-week-old) were divided into Group A, Group B, and Group C. As Group A, non-treated animals were used. […] Group C was intravenously administered with compound 72 (3 mg/kg body weight) of Reference Example A dissolved in an emulsion containing soybean oil, egg-yolk lecithin, glycerol and the like immediately before intraperitoneal administration of various anti-cancer agents. Thus, neither an enumerated anti- cancer agent nor Compound 72 was administered to Group A; an anti-cancer agent but not Compound 72 was administered to Groups B; and both an anti-cancer agent and Compound 72 were administered to Groups C. Pain threshold of each group was measured 1 week after the administration of the anti-cancer agent. Pain threshold is a weighed value (gram) at the time when a false escape response is observed by pressurizing the plantar part of the right hindlimb using a balance type pressing device (Ugo Basile). The values in the Table show mean ±standard error of the weighed values, and n is the number of the mice in each group.

Data set [2] has the same test system. The data set is described as follows: Experimental Example 4: pain threshold of mice given various anti-cancer agents, compound 9′, balance type pressing device (Ugo Basile). Here is the method:
Group D was intravenously administered with compound 9′ (1 mg/kg body weight) of Reference Example B dissolved in solution of N methyl-D(−)-glucamine (0.01 mol/L) immediately before intraperitoneal administration of various anti-cancer agents. Pain threshold of each group was measured 3 week after the administration for paclitaxel and 1 week after the administration for the anti-cancer agents other than paclitaxel. Pain threshold is a weighed value (gram) at the time when a false escape response is observed by pressurizing the plantar part of the right hindlimb using a balance type pressing device (Ugo Basile). The values in the Table show mean±standard error of the weighed values, and n is the number of the mice in each group.

Data set [3] relates to Mice (C57BL/6N, male, 7-week-old), peripheral nerve disorders induced by paclitaxel. Kind of data set: Experimental Example 1: pain threshold of paclitaxel-treated mice, balance type pressing device (Ugo Basile). Particulars: mean ± standard error. Here is the method: Mice (C57BL/6N, male, 7-week-old) were divided into Group A (6 mice), Group B (6 mice), and Group C (6 mice). Group B and Group C were intraperitoneally administered with paclitaxel (dissolved in ethanol:Cremophor EL:saline=0.5:0.5:9; 4 mg/kg body weight). As Group A, non-treated animals were used. Group C was intravenously administered with compound 72 (10 mg/kg body weight) of Reference Example A dissolved in an emulsion containing soybean oil, egg-yolk lecithin, glycerol and the like immediately before and 1 and 2 weeks after intraperitoneal administration of paclitaxel (total 3 times). Thus, neither paclitaxel nor Compound 72 was administered to Group A; paclitaxel but not Compound 72 was administered to Group B; and both paclitaxel and Compound 72 were administered to Group C. Pain threshold of each group was measured 3 weeks after paclitaxel administration to Group B and Group C. Pain threshold is a weighed value (gram) at the time when a false escape response is observed by pressurizing the plantar part of the right hindlimb using a balance type pressing device (Ugo Basile). The values in the Table show mean ±standard error of the weighed values.

In data set [4] the test system is Rat (Wistar, male, 5-week-old), peripheral nerve disorders induced by paclitaxel. Kind of data set: Experimental Example 3: pain threshold of paclitaxel-treated rats, Electronic von Frey. Here is the method:
Rat (Wistar, male, 5-week-old) were divided into Group A, Group B, and Group C. As Group A, non-treated animals were used. To Group B and Group C, paclitaxel is diluted with saline to a given concentration, and intraperitoneally administered at 6 mg/kg body weight for a total of 3 times at intervals of 1 to 2 days. Group C was intravenously administered with compound 72 (10 mg/kg body weight) of Reference Example A dissolved in an emulsion containing soybean oil, egg-yolk lecithin, glycerol and the like immediately before intraperitoneal administration of paclitaxel (total 3 times). Thus, neither paclitaxel nor Compound 72 was administered to Group A; paclitaxel but not Compound 72 was administered to Group B; and both paclitaxel and Compound 72 were administered to Group C. Pain threshold of each group was measured 2 weeks after first paclitaxel administration. Pain threshold is a weighed value (gram) at the time when an avoidance response is observed by pressurizing the plantar part of the right hindlimb using an Electronic von Frey (IITC Life Science). The values in the Table show mean ±standard error of the weighed values, and n is the number of the rats in each group.

Each structure is given as a SMILES string.

On to `N.N.O=C([O-])C1(C(=O)[O-])CCC1.[Pt+2]` [Carboplatin, carboplatin, reference compound], for which the “Pain threshold” value in data set [1] (Group B: anti-cancer agent alone i.p. (docetaxel 3, vincristine 0.1, cisplatin 3, carboplatin 40, bortezomib 0.4 mg/kg), non-treated Group A 365.0 ± 17.8) is on record as 110.0 ± 6.8 g; in data set [2] (Group B: anti-cancer agent alone i.p. (docetaxel 3, vincristine 0.1, cisplatin 3, carboplatin 40, bortezomib 0.4 mg/kg), 1 week after), 110.0 ± 6.8 g.
As to `CC(=O)O[C@H]1C(=O)[C@@]2(C)[C@H]([C@H](OC(=O)c3ccccc3)[C@]3(O)C[C@H](OC(=O)[C@H](O)[C@@H](NC(=O)c4ccccc4)c4ccccc4)C(C)=C1C3(C)C)[C@]1(OC(C)=O)CO[C@@H]1C[C@@H]2O` [paclitaxel, reference compound], the “Pain threshold” value came out at 185.0 ± 19.3 g in data set [3] (Group B: paclitaxel 4 mg/kg i.p. alone, measured 3 weeks after, non-treated Group A 443.3 ± 32.8) and 15.4 ± 2.6 g in data set [4] (Group B: paclitaxel 6 mg/kg i.p. 3 times alone, 2 weeks after first administration, non-treated Group A 25.8 ± 0.7).
In the case of `CCOC(=O)C1=CCCC[C@H]1S(=O)(=O)Nc1ccc(F)cc1Cl` [compound 72, ethyl (6R)-6-[N-(2-chloro-4-fluorophenyl)sulfamoyl]-1-cyclohexene-1-carboxylate], the “Pain threshold” value in data set [3] (Group C: paclitaxel 4 mg/kg i.p. + compound 72 10 mg/kg i.v. immediately before and 1 and 2 weeks after (3 times), measured 3 weeks after paclitaxel) is recorded as 441.7 ± 28.6 g; in data set [1] (Group C: bortezomib 0.4 mg/kg i.p. + compound 72 3 mg/kg i.v. immediately before, mean ± standard error), 306.7 ± 24.0 g; in data set [1] (Group C: carboplatin 40 mg/kg i.p. + compound 72 3 mg/kg i.v. immediately before, mean ± standard error), 213.3 ± 13.3 g; in data set [1] (Group C: cisplatin 3 mg/kg i.p. + compound 72 3 mg/kg i.v. immediately before, mean ± standard error), 166.7 ± 18.5 g; in data set [1] (Group C: docetaxel 3 mg/kg i.p. + compound 72 3 mg/kg i.v. immediately before, mean ± standard error) it was 276.7 ± 17.4 g; in data set [1] (Group C: vincristine 0.1 mg/kg i.p. + compound 72 3 mg/kg i.v. immediately before, mean ± standard error), 289.2 ± 44.6 g. Further, the “Pain threshold” value in data set [4] (Group C: paclitaxel 6 mg/kg i.p. 3 times + compound 72 10 mg/kg i.v. immediately before each, 2 weeks after first paclitaxel, mean ± standard error) worked out at 24.9 ± 0.9 g.
As for `CCOC(=O)C1=CCOC[C@H]1S(=O)(=O)Nc1ccc(F)cc1Cl` [compound 9′, ethyl (3S)-3-[N-(2-chloro-4-fluorophenyl)sulfamoyl]-3,6-dihydro-2H-pyran-4-carboxylate], the “Pain threshold” value in data set [2] (Group D: bortezomib 0.4 mg/kg i.p. + compound 9′ 1 mg/kg i.v. immediately before, 1 week after) came out at 256.7 ± 26.5 g; in data set [2] (Group D: carboplatin 40 mg/kg i.p. + compound 9′ 1 mg/kg i.v. immediately before, 1 week after), 176.7 ± 16.7 g; in data set [2] (Group D: cisplatin 3 mg/kg i.p. + compound 9′ 1 mg/kg i.v. immediately before, 1 week after) it was 193.3 ± 26.2 g; in data set [2] (Group D: docetaxel 3 mg/kg i.p. + compound 9′ 1 mg/kg i.v. immediately before, 1 week after), 276.7 ± 38.1 g; in data set [2] (Group D: paclitaxel 10 mg/kg i.p. + compound 9′ 1 mg/kg i.v. immediately before, 3 week after, mean ± standard error) it was 406.7 ± 61.2 g; in data set [2] (Group D: vincristine 0.1 mg/kg i.p. + compound 9′ 1 mg/kg i.v. immediately before, 1 week after), 306.7 ± 73.5 g.
